Assays:
[1] = Increase in contractions of electrically stimulated guinea pig longitudinal muscle/myenteric plexus at 2 mM; assay type: functional, Cavia porcellus, Muscle tissue
Cavia porcellus = species: Cavia porcellus; experiment: Increase in contractions of electrically stimulated guinea pig longitudinal muscle/myenteric plexus; assay type: functional, tissue-based; settings: Muscle tissue
[2] = Increase in contractions of electrically stimulated guinea pig longitudinal muscle/myenteric plexus at 0.1 mM; assay type: functional, Cavia porcellus, Muscle tissue

| Structure (SMILES) | Activity [1] | Activity (Cavia porcellus) | Activity [2] |
| --- | --- | --- | --- |
| Cn1c(=N)c2nc[nH]c2n(C)c1=O | 34% |  |  |
| C/N=c1\ncn(C)c2c1[nH]c(=O)n2C [CAISSARONE] |  | Dose-dependent effect | 80% |

— ChEMBL document CHEMBL1146421, “1,3-Dimethylisoguanine, a new purine from the marine sponge Amphimedon viridis” (1997)
